Here are results for 30 compounds from PubChem BioAssay (NCI).

Assay in all cases: growth of human tumour cells (NCI), 48 h
Test [1] concerns SK-MEL-2 melanoma.
In test [2] the test system is SR leukemia.
Test [3] has as its system HOP-62 NSCLC.
Test [4] concerns SK-MEL-5 melanoma.
For test [5], the system named is SF-539 CNS.
Test [6] has as its system OVCAR-5 ovarian.
Test [7] relates to SK-MEL-28 melanoma.
Test [8] relates to RPMI-8226 leukemia.
The subject of test [9] is MDA-MB-231 breast.
Test [10] deals with NCI/ADR-RES ovarian.

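Following 48 hours of exposure in 96-well plates, responses at five concentrations were used to interpolate endpoints linearly. Abbreviation: GI50, concentration required for 50% inhibition of growth. TGI marks complete inhibition of growth.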

In the case of `O=C1CCCC(=O)N1CCc1c[nH]c2ccccc12`, the TGI in test [1], in test [2], in test [3], in test [4], in test [5] and in test [6] was more than 100 µM each time. The compound further displayed a TGI in test [7] of more than 100 µM.

As to `Cc1ccc([N+](=O)[O-])cc1NC(=O)c1cccc([N+](=O)[O-])c1O`, the TGI stood at 33.9 µM in test [1]; 34 µM in test [3]; 68.3 µM in [8]; 28.7 µM in [4]; 54.1 µM in test [5]; 51.2 µM in test [7].

Regarding `Cc1cc(NS(=O)(=O)c2ccc(NC(=O)c3ccc(Cl)c4c(Nc5ccc(S(=O)(=O)N=C(N)N)cc5)c5ccccc5nc34)cc2)no1`, the TGI is 67.9 µM in test [2]; 97.7 µM in test [3]; more than 100 µM in [8]; more than 100 µM in test [5]; more than 100 µM in [6]; more than 100 µM in test [7].

`O=C1C2C=CC(C2)C(c2ccc(O)cc2)N1O` (centres undefined): the TGI in test [1], in test [2], in [3], in test [8], in test [4] and in [6] was more than 100 µM in each case. Further, in test [7], the TGI is more than 100 µM.

Take `COC(=O)NN=C1C(C)(C)C(=O)C1(C)C`: the TGI in [1], in [3], in [8], in test [4], in test [5] and in test [6] was more than 100 µM throughout. In [7], the TGI is more than 100 µM.

Take `COC(=O)[C@]12CC=C3O[C@@H]4OC5(CCCCC5)O[C@@H]4C3[C@@H]1C(=O)CCC2=O` (some centres undefined): the TGI in test [1], in test [3], in [8], in [4], in test [6] and in test [7] was more than 100 µM throughout.

With `O=C(O)CCSC(=O)Nc1ccccc1F`, the TGI in test [1], in test [2], in test [3], in test [8], in test [5] and in test [6] was more than 100 µM throughout. In test [7], this compound gave a TGI of more than 100 µM.

`O=c1[nH]c(=O)c2cc(C3CC(O)C(CO)O3)ccc2[nH]1` (centres undefined): the GI50 in test [1], in test [3], in [8], in test [9], in test [4] and in test [5] was more than 100 µM in each case. In addition, the GI50 in [6], in test [10] and in test [7] was more than 100 µM in each case. In addition, the TGI in test [1], in test [3], in test [8], in [9], in test [4] and in test [5] was more than 100 µM throughout. Moreover, the TGI in [6], in test [10] and in test [7] was more than 100 µM throughout.

Turning to `O=C(c1ccccc1)[C@@H]1C[C@H](Sc2ccccc2)c2cc(Cl)ccc2N1`, the TGI in test [1] is 97.6 µM; in test [2] it was more than 100 µM; in test [3], more than 100 µM; in test [8] it was more than 100 µM; in test [4] it was 26.9 µM; in test [5], 33.5 µM. The TGI in test [6] is more than 100 µM; in test [7], 58.9 µM.

Regarding `CCCCCCCCCCCCOC1C(C(COC2OC(C3COC(C)(C)O3)C3OC(C)(C)OC23)NC(=O)NS(=O)(=O)c2ccccc2)OC2OC(C)(C)OC21` (centres undefined), the GI50 is 3.29 µM in [1]; 4.34 µM in test [3]; 1.95 µM in test [8]; 9.94 µM in [9]; 2.51 µM in test [4]; 2.53 µM in test [5]. The GI50 in test [6] is 4.34 µM; in [10] it was 7.18 µM; in test [7], 9.61 µM. For the same compound, the TGI in test [1] turned out to be 9.57 µM; in test [3], 14.5 µM; in [8] it was 6.77 µM; in test [9], 24.3 µM; in [4], 6.34 µM; in test [5], 6.54 µM. Also, the TGI in [6] worked out at 13.8 µM; in [10], 23.6 µM; in [7], 28 µM.

As for `COc1ccc(CC(=O)NCCc2ccc(OC)c(OC)c2)cc1Br`, the TGI in [1], in [2], in test [3], in test [5], in [6] and in test [7] was more than 100 µM in each case.

`O=S(=O)(c1cccc2c(Cl)cccc12)N1CCCNCC1`: the GI50 in test [1] was 17.6 µM; in [3] it was 11.2 µM; in test [8], 13.9 µM; in test [9], 5.49 µM; in [4] it was 13.6 µM; in [5] it was 19.4 µM. Also, the figures for the GI50 in test [6], in test [10] and in test [7] were 11.5 µM, 13.7 µM and 10.8 µM, respectively. Besides, the TGI in test [1] came to 34.3 µM; in [3], 23.3 µM; in test [8] it was 32.7 µM; in test [9], 19.3 µM; in [4], 26.5 µM; in test [5], 37.7 µM. Also, the figures for the TGI in test [6], in test [10] and in [7] were 23.6 µM, 26.6 µM and 22.7 µM, respectively.

With `FC(F)(F)c1ccc(C#Cc2ccccc2C#Cc2ccccc2)cc1`, the GI50 in test [1] was 29.2 µM; in test [3] it was 52.5 µM; in test [9] it was 26.5 µM; in test [4] it was 32.7 µM; in test [5] it was 41.4 µM; in [6], 48.7 µM. Besides, the GI50 was 62.8 µM in test [10] and more than 100 µM in test [7]. Further, the TGI was 80 µM in test [1]; more than 100 µM in test [3]; 62.7 µM in [9]; more than 100 µM in test [4]; more than 100 µM in test [5]; more than 100 µM in [6]. For the same compound, the TGI in test [10] and in [7] was more than 100 µM each time.

Regarding `COc1ccc(S(=O)(=O)N/N=C/c2cc(I)cc([N+](=O)[O-])c2O)cc1OC`, the TGI in [1] is 45.6 µM; in test [8], 65.1 µM; in test [4], 38.3 µM; in test [6], more than 100 µM.

On to `Cc1ccc(NC(=O)C(=O)CC(=O)c2c(C)n([O-])c3ccccc3[n+]2=O)cc1`, for which the TGI is 53 µM in test [1]; 49.8 µM in test [2]; more than 100 µM in [3]; 58.6 µM in test [8]; 78.2 µM in [4]; 62.5 µM in test [5]. For the same compound, the TGI in test [6] and in [7] was more than 100 µM throughout.

For the compound `CN(C)C=[N+]=[N-]`, the TGI in [1], in test [2], in [3], in [8], in [4] and in test [5] was more than 100 µM in each case. In addition, the TGI in [6] was more than 100 µM.

Regarding `c1ccc2cc3[s+]snc3cc2c1`, the TGI in test [1], in test [2], in test [3], in test [4], in [5] and in test [6] was more than 100 µM each time. For the same compound, the TGI in test [7] was more than 100 µM.

`CCOC(=O)/C(=C\c1cccs1)P(=O)(OCC)OCC`: the TGI is 38.1 µM in test [1]; more than 100 µM in test [2]; more than 100 µM in [3]; 77.1 µM in test [8]; 31.6 µM in test [4]; 45.4 µM in test [5]. Besides, the TGI in test [6] came out at 45.8 µM; in test [7], 32.7 µM.

As to `CN1CC[C@]2(C)c3cc(O)ccc3CC3CCCC1C32C` (some centres undefined), the TGI in test [2], in [3], in test [8], in test [4], in test [5] and in [6] was more than 100 µM throughout. This compound registered a TGI in [7] of more than 100 µM.

For `C[C@]12CCC(=O)C(O)=C1CC[C@@H]1C2CC[C@]2(C)Nc3c(cnn3-c3ccccc3)CC12` (some centres undefined), the TGI in test [1] was more than 100 µM; in test [3], more than 100 µM; in test [8], 97.5 µM; in test [4], more than 100 µM; in test [5], more than 100 µM; in [6] it was more than 100 µM. Moreover, the TGI in test [7] is more than 100 µM.

As to `O=c1nc(NC(c2ccccc2)(c2ccccc2)c2ccccc2)ccn1CCNCCn1ccc(NC(c2ccccc2)(c2ccccc2)c2ccccc2)nc1=O`, the TGI was 9.32 µM in test [1]; 32.5 µM in test [3]; 20.5 µM in test [4]; 29.6 µM in test [5]; more than 100 µM in test [6]; 22.2 µM in test [7].

Regarding `CCC[CH2][Sn]([CH2]CCC)([CH2]CCC)[O]C(=O)c1ccc(Cl)cc1Cl`, the GI50 in test [1] was 0.149 µM; in [3], 0.164 µM; in test [8] it was 0.146 µM; in test [9] it was 0.129 µM; in test [4] it was 0.143 µM; in test [5], 0.172 µM. The GI50 is 0.135 µM in test [6], 0.177 µM in [10] and 0.159 µM in test [7]. Moreover, the TGI in test [1] turned out to be 0.333 µM; in test [3], 0.319 µM; in test [9], 0.326 µM; in test [4] it was 0.276 µM; in [5], 0.327 µM; in test [6] it was 0.315 µM. Moreover, the TGI in test [10] amounted to 0.378 µM; in test [7], 0.302 µM.

For `O=C(O)CNS(=O)(=O)c1ccc(NC(=O)CI)cc1`, the TGI is 73.6 µM in test [1]; 38.6 µM in test [8]; 63 µM in test [4]; 30 µM in test [5]; 61.1 µM in test [6]; 72.4 µM in test [7].

Turning to `C[N+]1(C)C/C(=C\c2ccccc2)C(=O)/C(=C/c2ccccc2)C1`, the TGI in test [2], in test [3], in test [8], in test [4], in test [5] and in test [6] was more than 100 µM throughout. Moreover, the TGI in test [7] was more than 100 µM.

For `Cc1[nH]c(=O)n2c(C)nnc2c1C(=O)Nc1cc(Cl)cc(Cl)c1`, the TGI in test [2] was 66.5 µM; in test [3], 79.4 µM; in test [8] it was more than 100 µM; in test [4], 31 µM; in test [5] it was 78.4 µM; in test [6], more than 100 µM. In test [7], this compound had a TGI of 60.8 µM.

Consider `C=C1C(=O)OC2C=C(CCC(C)=O)C(C)C(OC(C)=O)CC12` (centres undefined), for which the TGI is 27.9 µM in test [1]; 52.9 µM in [2]; 24 µM in test [8]; 28.5 µM in [5]; 29.6 µM in test [6]; 20.8 µM in [7].

`Cc1c(C(=O)CC(=O)C(=O)Nc2ccc(Cl)cc2)[n+](=O)c2ccccc2n1[O-]`: the TGI in [1], in test [8], in [4], in test [5], in test [6] and in test [7] was more than 100 µM each time.

Regarding `CC(C)(CN1CCCCC1)C(=O)/C=C/c1ccc(Cl)cc1`, the TGI in test [2] came to 7.15 µM; in test [8], 10.1 µM; in test [4], 15.1 µM; in test [5], 5.41 µM; in [6], 23.5 µM; in [7] it was 22.6 µM.

`Fc1ccccc1C1SCc2nc3ccccc3n21` (centres undefined): the TGI in test [1] was more than 100 µM; in test [2], more than 100 µM; in test [8], more than 100 µM; in test [4], 42.9 µM; in [5], more than 100 µM; in test [6] it was more than 100 µM. The compound further had a TGI in [7] of more than 100 µM.

Consider `CNCCNc1c2c(c(NCCNC)c3[nH]ccc13)C(=O)c1ccccc1C2=O`, for which the GI50 in [1] was 0.581 µM; in [3], 0.135 µM; in [8] it was 0.051 µM; in test [9], 0.1 µM; in [4] it was 0.421 µM; in test [5] it was 0.458 µM. The GI50 in [6] was 0.536 µM; in [10], 1.26 µM; in [7] it was 4.18 µM. In addition, the TGI came to 2.55 µM in test [1]; 0.543 µM in [3]; 0.214 µM in [8]; 0.33 µM in [9]; 0.901 µM in test [4]; 1.07 µM in test [5]. Besides, the TGI in test [6] worked out at 1.93 µM; in test [10], 8.21 µM; in test [7], 11.1 µM.
